Measurements from publication PMC9948168, “Vanillin-Based Indolin-2-one Derivative Bearing a Pyridyl Moiety as a Promising Anti-Breast Cancer Agent via Anti-Estrogenic Activity” (ACS Omega, 2023).
Read-outs that look alike come from different tables or passages of the source.

Assays:
Format in all cases: cell-based, human
[1] = system: MCF-12A cells; assay: iCELLigence real-time cell analysis; details: for IC50: Homo sapiens, MCF-12A
Procedure: (§1) Therefore, compound 6j was applied in serial doses (2, 5, 10, 20, 50, and 100 μM) to MCF-7 cells and parallel to MCF-12A cells to determine the selectivity and safety. The treatments were performed 24 h after seeding the cells on system-specific biosensor-based plates. A total of 120 h of analyses were monitored, with cell viability measurements taken every 15 min. […] In addition, the viability percentage values for each dose in these periods were calculated and are summarized in Table 3 for MCF-7 and Table 4 for MCF-12A. […] In these treatments, cells were not killed dramatically after adding the highest two doses of 6j (100 and 50 μM); instead, they entered the stationary phase.
(§2) MCF-7 (Cat. no. HTB-22) (human estrogen receptor-positive breast cancer) and MCF-12A (Cat. no. CRL-10782) (human non-tumorigenic mammary epithelial) cell lines were obtained from the American Type Culture Collection (ATCC, Rockville, Maryland, USA). MCF-7 cells were maintained in Dulbecco’s modified Eagle’s medium (DMEM) (Biological Industries, Haemek, Israel) supplemented with 10% heat-inactivated fetal bovine serum (FBS) (Biowest, Nuaillé, France), 2 mM L-glutamine (Biological Industries, Haemek, Israel), 100 U/mL penicillin and 100 μg/mL streptomycin (Gibco, Waltham, MA, USA), and 2.5 μg/mL plasmocin (Invivogen, Toulouse, France) at 37 °C in a 5% CO2 humidified incubator. MCF-12A cells were cultured in a DMEM/F-12 Nutrient Mixture (Ham) (DMEM/F12 1:1 with HEPES and L-glutamine) (Gibco, Waltham, MA, USA) with 10% heat-inactivated FBS, 100 U/mL penicillin, 100 μg/mL streptomycin, and 10 μg/mL insulin (Humulin R, Lilly, Indianapolis, USA), 20 ng/mL epidermal growth factor (Abcam, Cambridge, UK), […] hydrocortisone (Dekort, Deva Ilac, Istanbul, Turkey), and 2.5 μg/mL plasmocin in a humidified atmosphere of 5% CO2 at 37 °C. The cells were routinely cultured in cell culture flasks and checked regularly under an inverted microscope. Cells reaching 80% confluency were passaged by treatment with 0.25% trypsin–EDTA. Total cell numbers were counted by the trypan blue dye exclusion method using a hemocytometer prior to the experiments.
(§3) The iCELLigence real-time cell analysis system was used to conduct a real-time and label-free examination of the activities of compound 6j on cells as we previously described.[62] In brief, following a background measurement with 200 μL of complete medium on iCELLigence E-plate L8, 100 μL of MCF-7 or MCF-12A cells was seeded at a density of 5.0 × 10^3 per well. During the 120 h monitoring, the system took impedance measurements via biosensors every 15 min. At the 24th h of incubation, the cells were treated with increasing concentrations of the 6j compound (2, 5, 10, 20, 50, and 100 μM) in duplicate. For cell culture experiments, compound 6j was dissolved in DMSO (Sigma, St. Louis, USA) at a stock concentration of 20 mM. For treatments, dilutions were prepared from 20 mM stock with a cell growth medium, with a final DMSO concentration of 0.1%. The medium containing 0.1% DMSO was also used as a negative control. […] Data were recorded by the iCELLigence software for 120 h and analyzed at the end of the study.

[2] = system: MCF-7 cells; assay: iCELLigence real-time cell analysis; details: for viability at 2 µM / viability at 5 µM / viability at 10 µM / viability at 20 µM / viability at 50 µM / viability at 100 µM / IC50: MCF-7; for viability at 2 µM / viability at 5 µM / viability at 10 µM / viability at 20 µM / viability at 50 µM / viability at 100 µM: relative to control, read-out: cell viability (% ± SEM)
Procedure: as §1, §2, §3

[3] = iCELLigence real-time cell analysis; details: human, MCF-12A, relative to control, read-out: cell viability (% ± SEM)
Procedure: as §1, §2, §3

With `COc1cc(C=C2C(=O)Nc3ccc(Cl)cc32)ccc1OCc1ccccn1` (mixture of isomers) [6j] the IC50 ([1]; 24 h after treatment) was 506 µM, the IC50 ([1]; 48 h after treatment) was 81.9 µM and the IC50 ([1]; 72 h after treatment) was 312 µM. For the same molecule, the IC50 ([1]; 96 h after treatment) was 207 µM, the “safer profile MCF-12A versus MCF-7” value ([1]; at the 48th h, based on IC50 values) was 5 times and the “effects on MCF-12A healthy breast cells” value ([1]; first 24 h of treatment, any dose (2-100 μM)) was “no effects”. For the same molecule, the “inhibition of MCF-7 viability” value ([2]; 20 μM, compared with same concentration of tamoxifen) was 30%, the “growth of MCF-7 cells” value ([2]; 100 and 50 μM, all time points) was “completely inhibited the growth” and the inhibition at 10 µM ([2]; Homo sapiens, MCF7, 10 μM, from growth curves) was 25%. It also gave an inhibition at 20 µM ([2]; Homo sapiens, MCF7, 20 μM, all time points, from growth curves) of ~50%, a viability at 2 µM ([2]; Homo sapiens, MCF7, 24 h) of 91.38 ± 0.01% and a viability at 2 µM ([2]; Homo sapiens, MCF7, 48 h) of 91.38 ± 0.01%. It also gave a viability at 2 µM ([2]; Homo sapiens, MCF7, 72 h) of 91.38 ± 0.01%, a viability at 2 µM ([2]; Homo sapiens, MCF7, 96 h) of 90.67 ± 0.01% and a viability at 5 µM ([2]; Homo sapiens, MCF7, 24 h) of 84.83 ± 0.01%. It also gave a viability at 5 µM ([2]; Homo sapiens, MCF7, 48 h) of 83.01 ± 0.02%, a viability at 5 µM ([2]; Homo sapiens, MCF7, 72 h) of 83.01 ± 0.02% and a viability at 5 µM ([2]; Homo sapiens, MCF7, 96 h) of 82.54 ± 0.01%. It also gave a viability at 10 µM ([2]; Homo sapiens, MCF7, 10 μM, 24 h) of 80 ± 0.01%, a viability at 10 µM ([2]; Homo sapiens, MCF7, 10 μM, 48 h) of 76.59 ± 0.01% and a viability at 10 µM ([2]; Homo sapiens, MCF7, 10 μM, 72 h) of 76.59 ± 0.01%. It also gave a viability at 10 µM ([2]; Homo sapiens, MCF7, 10 μM, 96 h) of 74.2%, a viability at 20 µM ([2]; Homo sapiens, MCF7, 20 μM, 24 h) of 70.25 ± 0.02% and a viability at 20 µM ([2]; Homo sapiens, MCF7, 20 μM, 48 h) of 64.29 ± 0.02%. It also gave a viability at 20 µM ([2]; Homo sapiens, MCF7, 20 μM, 72 h) of 51.2 ± 0.01%, a viability at 20 µM ([2]; Homo sapiens, MCF7, 20 μM, 96 h) of 40.5% and a viability at 50 µM ([2]; Homo sapiens, MCF7, 24 h) of 62.7%. For the same molecule, the viability at 50 µM ([2]; Homo sapiens, MCF7, 48 h) was 43.4%, the viability at 50 µM ([2]; Homo sapiens, MCF7, 72 h) was 28% and the viability at 50 µM ([2]; Homo sapiens, MCF7, 96 h) was 18.4%. For the same molecule, the viability at 100 µM ([2]; Homo sapiens, MCF7, 24 h) was 57.46 ± 0.02%, the viability at 100 µM ([2]; Homo sapiens, MCF7, 48 h) was 33.25 ± 0.02% and the viability at 100 µM ([2]; Homo sapiens, MCF7, 72 h) was 20.25 ± 0.01%. It also gave a viability at 100 µM ([2]; Homo sapiens, MCF7, 96 h) of 13.4%, an IC50 ([2]; Homo sapiens, MCF7, 24 h after treatment) of 121 µM and an IC50 ([2]; Homo sapiens, MCF7, 48 h after treatment) of 16.2 µM. It also gave an IC50 ([2]; Homo sapiens, MCF7, 72 h after treatment) of 17 µM, an IC50 ([2]; Homo sapiens, MCF7, 96 h after treatment) of 16.1 µM and a viability at 48 h, 2 µM ([3]; MCF-12A cells (non-tumorigenic mammary epithelial), 2 μM, 48 h) of 97.43 ± 0.02%. The viability at 72 h, 2 µM ([3]; MCF-12A cells (non-tumorigenic mammary epithelial), 2 μM, 72 h) was 97.43 ± 0.02%, the viability at 96 h, 2 µM ([3]; MCF-12A cells (non-tumorigenic mammary epithelial), 2 μM, 96 h) was 97.43 ± 0.02% and the viability at 72 h, 5 µM ([3]; MCF-12A cells (non-tumorigenic mammary epithelial), 5 μM, 72 h) was 92.74 ± 0.01%. It also gave a viability at 96 h, 5 µM ([3]; MCF-12A cells (non-tumorigenic mammary epithelial), 5 μM, 96 h) of 92.2%, a viability at 72 h, 10 µM ([3]; MCF-12A cells (non-tumorigenic mammary epithelial), 10 μM, 72 h) of 87.93 ± 0.02% and a viability at 96 h, 10 µM ([3]; MCF-12A cells (non-tumorigenic mammary epithelial), 10 μM, 96 h) of 87.93 ± 0.02%. It also gave a viability at 72 h, 20 µM ([3]; MCF-12A cells (non-tumorigenic mammary epithelial), 20 μM, 72 h) of 80.57 ± 0.01%, a viability at 96 h, 20 µM ([3]; MCF-12A cells (non-tumorigenic mammary epithelial), 20 μM, 96 h) of 80.57 ± 0.01% and a viability at 72 h, 50 µM ([3]; MCF-12A cells (non-tumorigenic mammary epithelial), 50 μM, 72 h) of 72.7 ± 0.01%. The viability at 96 h, 50 µM ([3]; MCF-12A cells (non-tumorigenic mammary epithelial), 50 μM, 96 h) was 72.54 ± 0.01%, the viability at 72 h, 100 µM ([3]; MCF-12A cells (non-tumorigenic mammary epithelial), 100 μM, 72 h) was 62.63 ± 0.01% and the viability at 96 h, 100 µM ([3]; MCF-12A cells (non-tumorigenic mammary epithelial), 100 μM, 96 h) was 61.3%. It also gave a viability at 24 h, 2 µM ([3]; MCF-12A cells, 2 μM, 24 h) of 98.7%, a viability at 24 h, 5 µM ([3]; MCF-12A cells, 5 μM, 24 h) of 99.06 ± 0.01% and a viability at 48 h, 5 µM ([3]; MCF-12A cells, 5 μM, 48 h) of 93.73 ± 0.02%. It also gave a viability at 24 h, 10 µM ([3]; MCF-12A cells, 10 μM, 24 h) of 97.22 ± 0.01%, a viability at 48 h, 10 µM ([3]; MCF-12A cells, 10 μM, 48 h) of 88.48 ± 0.02% and a viability at 24 h, 20 µM ([3]; MCF-12A cells, 20 μM, 24 h) of 93.6%. The viability at 48 h, 20 µM ([3]; MCF-12A cells, 20 μM, 48 h) was 81.96 ± 0.01%, the viability at 24 h, 50 µM ([3]; MCF-12A cells, 50 μM, 24 h) was 90.25 ± 0.01% and the viability at 48 h, 50 µM ([3]; MCF-12A cells, 50 μM, 48 h) was 77.81 ± 0.01%. The viability at 24 h, 100 µM ([3]; MCF-12A cells, 100 μM, 24 h) was 82% and the viability at 48 h, 100 µM ([3]; MCF-12A cells, 100 μM, 48 h) was 67.3%.
